ChEMBL document CHEMBL1144373, “NMDA-NR2B subtype selectivity of stereoisomeric 2-(1,2,3,4-tetrahydro-1-isoquinolyl)ethanol derivatives” (Bioorg Med Chem Lett, 2005)
pIC50, pKi: −log10 of the molar value.

What was measured:
[1] = molecular target: Glutamate [NMDA] receptor; experiment: Mean inhibitory concentration against [3H]MK-801 binding to porcine N-methyl-D-aspartate (NMDA) glutamate receptor; n=3; type: protein-complex assay, Sus scrofa
[2] = molecular target: Glutamate [NMDA] receptor; experiment: Mean inhibitory concentration against [3H]ifenprodil binding to porcine N-methyl-D-aspartate (NMDA) glutamate receptor; n=3; type: protein-complex assay, Sus scrofa
[3] = molecular target: Glutamate [NMDA] receptor; experiment: Mean inhibitory constant against porcine N-methyl-D-aspartate (NMDA) glutamate receptor; n=1; type: protein-complex assay, Sus scrofa
[4] = molecular target: Glutamate [NMDA] receptor (Homo sapiens) (UniProt Q05586+Q12879+Q13224+O15399+O60391+Q14957+Q8TCU5); experiment: Specific binding of [3H]ifenprodil to N-methyl-D-aspartate (NMDA) glutamate receptor remaining in presence of 100 uM inhibitor; type: protein-complex assay; settings: Sus scrofa
[5] = molecular target: Glutamate [NMDA] receptor; experiment: Mean inhibitory constant against porcine N-methyl-D-aspartate (NMDA) glutamate receptor; n=3; type: protein-complex assay, Sus scrofa
[6] = molecular target: Glutamate [NMDA] receptor; experiment: Mean inhibitory concentration against [3H]ifenprodil binding to porcine N-methyl-D-aspartate (NMDA) glutamate receptor; n=1; type: protein-complex assay, Sus scrofa
[7] = molecular target: Glutamate NMDA receptor; Grin1/Grin2a (Rattus norvegicus, UniProt P35439+Q00959); experiment: Mean inhibitory concentration against rat N-methyl-D-aspartate (NMDA) glutamate receptor 1a/2A expressed in Xenopus oocytes; type: cell-based, Oocyte
[8] = Mean inhibitory concentration against rat N-methyl-D-aspartate (NMDA) glutamate receptor 1a/2D expressed in Xenopus oocytes; type: cell-based; settings: oocyte
[9] = molecular target: Glutamate NMDA receptor; Grin1/Grin2b (Rattus norvegicus, UniProt P35439+Q00960); experiment: Mean inhibitory concentration against rat N-methyl-D-aspartate (NMDA) glutamate receptor 1a/2B expressed in Xenopus oocytes; type: cell-based, Oocyte
[10] = molecular target: Glutamate NMDA receptor; Grin1/Grin2c (Rattus norvegicus, UniProt P35439+Q00961); experiment: Mean inhibitory concentration against rat N-methyl-D-aspartate (NMDA) glutamate receptor 1a/2C expressed in Xenopus oocytes; type: cell-based, Oocyte
Sequence of Glutamate NMDA receptor; Grin1/Grin2c (Q00961 whole entry, other chains not shown): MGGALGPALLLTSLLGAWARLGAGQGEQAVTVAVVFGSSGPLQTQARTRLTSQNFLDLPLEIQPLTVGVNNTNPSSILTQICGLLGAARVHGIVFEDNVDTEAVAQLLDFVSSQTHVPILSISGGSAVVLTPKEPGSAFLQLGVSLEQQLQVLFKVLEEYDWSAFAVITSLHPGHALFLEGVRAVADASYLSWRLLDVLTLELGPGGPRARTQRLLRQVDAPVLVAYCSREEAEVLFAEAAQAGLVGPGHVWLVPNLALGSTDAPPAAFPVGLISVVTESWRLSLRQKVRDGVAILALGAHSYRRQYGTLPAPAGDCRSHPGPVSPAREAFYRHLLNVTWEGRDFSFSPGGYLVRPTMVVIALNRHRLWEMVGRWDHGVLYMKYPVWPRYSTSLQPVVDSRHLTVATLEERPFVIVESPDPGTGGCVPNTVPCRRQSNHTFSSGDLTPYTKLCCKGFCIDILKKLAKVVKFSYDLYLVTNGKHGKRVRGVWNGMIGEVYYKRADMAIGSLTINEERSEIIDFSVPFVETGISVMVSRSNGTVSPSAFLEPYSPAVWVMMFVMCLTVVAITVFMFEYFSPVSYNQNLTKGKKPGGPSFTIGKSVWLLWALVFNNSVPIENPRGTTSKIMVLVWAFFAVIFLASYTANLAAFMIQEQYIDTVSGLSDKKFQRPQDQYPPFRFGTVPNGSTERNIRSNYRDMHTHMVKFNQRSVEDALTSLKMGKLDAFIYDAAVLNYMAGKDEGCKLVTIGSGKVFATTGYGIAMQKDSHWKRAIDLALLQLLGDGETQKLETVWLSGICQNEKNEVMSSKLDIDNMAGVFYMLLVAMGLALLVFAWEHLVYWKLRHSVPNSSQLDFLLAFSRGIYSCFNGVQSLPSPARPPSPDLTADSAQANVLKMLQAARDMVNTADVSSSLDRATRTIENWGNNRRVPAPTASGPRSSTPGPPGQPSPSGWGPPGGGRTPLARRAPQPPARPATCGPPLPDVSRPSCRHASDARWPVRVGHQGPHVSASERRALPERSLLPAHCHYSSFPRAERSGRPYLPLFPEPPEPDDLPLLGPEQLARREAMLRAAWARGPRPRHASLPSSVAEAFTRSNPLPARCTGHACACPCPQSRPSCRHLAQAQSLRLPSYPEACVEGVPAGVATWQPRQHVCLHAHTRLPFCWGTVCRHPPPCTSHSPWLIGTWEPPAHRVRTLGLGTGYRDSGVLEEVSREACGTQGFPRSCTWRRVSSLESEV

Sequence of Glutamate NMDA receptor; Grin1/Grin2a (Q00959 whole entry, other chains not shown): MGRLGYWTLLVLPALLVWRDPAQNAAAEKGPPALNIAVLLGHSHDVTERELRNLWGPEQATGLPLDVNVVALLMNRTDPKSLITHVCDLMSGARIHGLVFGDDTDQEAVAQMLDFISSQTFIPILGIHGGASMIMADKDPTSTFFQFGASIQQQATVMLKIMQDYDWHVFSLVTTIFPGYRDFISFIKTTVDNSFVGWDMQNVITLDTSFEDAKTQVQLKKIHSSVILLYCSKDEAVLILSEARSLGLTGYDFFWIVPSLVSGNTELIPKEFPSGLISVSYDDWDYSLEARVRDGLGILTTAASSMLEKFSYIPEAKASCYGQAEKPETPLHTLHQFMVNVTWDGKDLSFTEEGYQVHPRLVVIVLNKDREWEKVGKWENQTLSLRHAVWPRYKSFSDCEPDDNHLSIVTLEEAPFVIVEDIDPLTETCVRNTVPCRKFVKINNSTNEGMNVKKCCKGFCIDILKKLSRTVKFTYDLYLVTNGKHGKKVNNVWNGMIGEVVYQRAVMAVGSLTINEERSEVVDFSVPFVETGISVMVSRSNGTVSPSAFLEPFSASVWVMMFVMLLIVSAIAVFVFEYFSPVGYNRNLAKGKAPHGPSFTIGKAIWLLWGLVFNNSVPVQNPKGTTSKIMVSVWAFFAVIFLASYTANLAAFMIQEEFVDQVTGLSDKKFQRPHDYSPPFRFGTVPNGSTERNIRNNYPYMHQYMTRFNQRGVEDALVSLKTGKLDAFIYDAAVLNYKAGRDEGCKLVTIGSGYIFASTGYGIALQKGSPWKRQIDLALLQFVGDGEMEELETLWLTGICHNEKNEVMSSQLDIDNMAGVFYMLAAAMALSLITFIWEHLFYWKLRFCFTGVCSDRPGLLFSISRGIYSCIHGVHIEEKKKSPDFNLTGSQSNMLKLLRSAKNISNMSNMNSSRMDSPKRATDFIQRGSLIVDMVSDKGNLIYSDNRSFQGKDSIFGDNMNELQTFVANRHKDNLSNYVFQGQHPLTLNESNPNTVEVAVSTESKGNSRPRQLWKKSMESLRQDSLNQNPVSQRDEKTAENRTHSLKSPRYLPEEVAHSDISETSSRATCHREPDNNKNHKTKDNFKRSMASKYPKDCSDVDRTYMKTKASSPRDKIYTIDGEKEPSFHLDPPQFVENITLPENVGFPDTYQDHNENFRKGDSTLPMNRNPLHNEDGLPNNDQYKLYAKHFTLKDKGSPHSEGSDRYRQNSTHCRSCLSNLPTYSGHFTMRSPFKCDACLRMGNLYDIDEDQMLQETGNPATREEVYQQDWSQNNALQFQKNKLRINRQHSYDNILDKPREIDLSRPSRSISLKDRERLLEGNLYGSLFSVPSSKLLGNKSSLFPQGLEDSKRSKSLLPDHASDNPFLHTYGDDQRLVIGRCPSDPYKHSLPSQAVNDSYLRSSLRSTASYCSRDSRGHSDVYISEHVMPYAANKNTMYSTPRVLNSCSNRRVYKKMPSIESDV
Sequence of Glutamate NMDA receptor; Grin1/Grin2b (Q00960 whole entry, other chains not shown): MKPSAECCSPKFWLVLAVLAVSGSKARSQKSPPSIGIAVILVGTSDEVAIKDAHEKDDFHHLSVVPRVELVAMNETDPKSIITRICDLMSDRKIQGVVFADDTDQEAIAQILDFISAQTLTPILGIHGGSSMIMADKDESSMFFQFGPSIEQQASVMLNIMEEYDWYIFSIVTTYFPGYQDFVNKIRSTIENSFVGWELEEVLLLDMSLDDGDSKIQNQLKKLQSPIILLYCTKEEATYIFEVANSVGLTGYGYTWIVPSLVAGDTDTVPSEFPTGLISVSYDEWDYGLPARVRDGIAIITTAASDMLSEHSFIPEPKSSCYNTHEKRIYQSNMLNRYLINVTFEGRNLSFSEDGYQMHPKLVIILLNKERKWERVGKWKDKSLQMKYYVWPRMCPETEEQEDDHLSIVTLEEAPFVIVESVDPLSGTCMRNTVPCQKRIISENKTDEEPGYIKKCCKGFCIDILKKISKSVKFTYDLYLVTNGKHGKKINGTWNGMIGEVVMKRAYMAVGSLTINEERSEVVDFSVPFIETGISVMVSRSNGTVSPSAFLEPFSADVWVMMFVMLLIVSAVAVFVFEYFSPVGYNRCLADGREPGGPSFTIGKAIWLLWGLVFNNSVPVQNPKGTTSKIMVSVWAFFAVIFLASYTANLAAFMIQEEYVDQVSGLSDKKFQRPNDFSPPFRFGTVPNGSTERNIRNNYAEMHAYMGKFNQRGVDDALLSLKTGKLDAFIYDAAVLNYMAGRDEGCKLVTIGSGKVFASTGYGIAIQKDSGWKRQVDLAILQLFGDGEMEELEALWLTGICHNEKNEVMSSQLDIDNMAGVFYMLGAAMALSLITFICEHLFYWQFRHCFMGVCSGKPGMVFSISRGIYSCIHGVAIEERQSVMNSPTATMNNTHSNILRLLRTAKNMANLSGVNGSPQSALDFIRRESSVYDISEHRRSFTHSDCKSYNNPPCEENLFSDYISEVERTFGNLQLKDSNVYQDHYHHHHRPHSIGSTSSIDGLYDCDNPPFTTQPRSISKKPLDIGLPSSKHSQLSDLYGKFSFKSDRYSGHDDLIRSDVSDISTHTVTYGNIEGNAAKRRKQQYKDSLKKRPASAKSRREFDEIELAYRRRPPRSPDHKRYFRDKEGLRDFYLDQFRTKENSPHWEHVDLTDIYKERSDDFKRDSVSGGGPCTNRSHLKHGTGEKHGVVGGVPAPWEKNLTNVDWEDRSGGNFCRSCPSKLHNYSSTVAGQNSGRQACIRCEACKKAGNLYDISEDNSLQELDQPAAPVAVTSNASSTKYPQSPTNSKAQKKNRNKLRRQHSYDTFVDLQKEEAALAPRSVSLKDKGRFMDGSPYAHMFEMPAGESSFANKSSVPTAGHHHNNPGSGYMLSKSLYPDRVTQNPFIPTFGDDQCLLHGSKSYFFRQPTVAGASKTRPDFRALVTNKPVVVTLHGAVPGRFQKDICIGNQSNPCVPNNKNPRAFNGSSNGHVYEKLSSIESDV

Row | Structure (SMILES) | pIC50 [1] | pIC50 [2] | pKi [3] | Binding [4] | pKi [5] | pIC50 [6] | pIC50 [7] | pIC50 [8] | pIC50 [9] | pIC50 [10]
1 | COc1ccc([C@@H](O)C[C@@H]2NCCc3cc(OC)c(OC)cc32)cc1 | 4.54 | 4.85 |  |  |  |  |  |  |  | 
2 | COc1ccc([C@H](O)C[C@H]2c3cc(OC)c(OC)cc3CCN2C)cc1 |  |  | 4.66 | 34% |  |  |  |  |  | 
3 | COc1cc2c(cc1OC)[C@@H](C[C@H](O)c1ccc(Cl)cc1)NCC2 | 4.40 | 4.37 |  |  | 5.17 |  |  |  |  | 
4 | COc1ccc([C@H](O)C[C@@H]2NCCc3cc(OC)c(OC)cc32)cc1 | 3.96 |  |  |  | 5.24 | 3.61 |  |  |  | 
5 | COc1cc2c(cc1OC)[C@H](C[C@@H](O)c1ccc(Cl)cc1)NCC2 | 4.47 | 4.02 |  |  | 5.59 |  |  |  |  | 
6 | COc1ccc([C@H](O)C[C@@H]2c3cc(OC)c(OC)cc3CCN2C)cc1 |  |  |  | 50% | 7.22 |  |  |  |  | 
7 | COc1ccc([C@@H](O)C[C@@H]2c3cc(OC)c(OC)cc3CCN2C)cc1 | 3.92 |  |  | 87% | 6.42 |  |  |  |  | 
8 | COc1ccc([C@@H](O)C[C@H]2c3cc(OC)c(OC)cc3CCN2C)cc1 | 5.34 | 6.62 |  |  | 5.57 |  | 3.97 | 3.47 | 5.50 | 3.81
9 | COc1cc2c(cc1OC)[C@@H](C[C@H](O)c1ccc(Cl)cc1)N(C)CC2 | 4.51 | 4.62 |  |  | 6.96 |  |  |  |  | 
10 | COc1cc2c(cc1OC)[C@H](C[C@H](O)c1ccc(Cl)cc1)N(C)CC2 | 6.02 | 7.23 |  |  | 6.30 |  | 3.86 | 4.56 | 5.88 | 5.28
11 | COc1cc2c(cc1OC)[C@H](C[C@@H](O)c1ccc(Cl)cc1)N(C)CC2 | 4.35 | 4.28 |  |  | 5.57 |  |  |  |  | 
12 | COc1cc2c(cc1OC)[C@@H](C[C@@H](O)c1ccc(Cl)cc1)NCC2 | 4.43 |  |  |  | 6.59 | 3.54 |  |  |  | 
13 | COc1cc2c(cc1OC)[C@@H](C[C@@H](O)c1ccc(Cl)cc1)N(C)CC2 | 4.25 | 4.00 |  |  | 8.15 |  |  |  |  | 
14 | COc1cc2c(cc1OC)[C@H](C[C@H](O)c1ccc(Cl)cc1)NCC2 | 5.13 | 5.96 |  |  | 6.04 |  | 3.98 | 4.32 | 4.98 | 4.60
15 | COc1ccc([C@H](O)C[C@H]2NCCc3cc(OC)c(OC)cc32)cc1 | 3.92 |  |  | 63% | 6.14 |  |  |  |  | 
16 | COc1ccc([C@@H](O)C[C@H]2NCCc3cc(OC)c(OC)cc32)cc1 | 3.85 |  |  |  | 4.96 | 3.38 |  |  |  | 
